This passage reports GI50 and TGI results from PubChem BioAssay (NCI).

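Compound exposure: 48 hours, 5 concentrations, 96-well plates. GI50 = concentration required for 50% inhibition of growth. TGI denotes the concentration required for complete inhibition of growth.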

Among the test systems are SK-OV-3 ovarian; RXF 393 renal; RPMI-8226 leukemia; K-562 leukemia; OVCAR-5 ovarian; HT29 colon; NCI-H226 lung; KM20L2 colon; SNB-78 CNS; M19-MEL melanoma; DMS 273 small cell lung; DLD-1 colon.
Holding throughout (assay): NCI-60 cell line screen, 48 h

Turning to `C=C1SC(=Nc2ccccc2Cl)N(C(=O)c2sc3ccccc3c2Cl)C1(C)C`, the GI50 in the assay on SK-OV-3 ovarian was 7.94 µM; in the assay with RXF 393 renal, 16.6 µM; with RPMI-8226 leukemia it was 2.44 µM; with K-562 leukemia it was 4.51 µM; in the assay with OVCAR-5 ovarian, 10.9 µM; in the assay on HT29 colon, 14.2 µM. For the same compound, the GI50 in the assay on NCI-H226 lung was 5.52 µM. Further, the TGI in the assay with SK-OV-3 ovarian is 80.2 µM; with RXF 393 renal, over 86.5 µM; in the assay on K-562 leukemia, over 37.4 µM; with OVCAR-5 ovarian, over 100 µM; with HT29 colon, 51.7 µM; in the assay on NCI-H226 lung it was over 74.2 µM.
`O=c1ccccc(-c2ccc(-c3ccco3)cc2)c1O`: the GI50 in the assay with SK-OV-3 ovarian is 1.22 µM; in the assay on RXF 393 renal, 0.951 µM; in the assay on RPMI-8226 leukemia, 0.756 µM; with K-562 leukemia, 0.603 µM; in the assay with OVCAR-5 ovarian, 2.79 µM; in the assay on HT29 colon, 1.7 µM. The GI50 in the assay on NCI-H226 lung is 2.31 µM. Further, the TGI was 24 µM with SK-OV-3 ovarian; 17.2 µM in the assay with RXF 393 renal; over 100 µM with RPMI-8226 leukemia; over 100 µM in the assay with K-562 leukemia; 42 µM in the assay with OVCAR-5 ovarian; 65.6 µM in the assay on HT29 colon. This compound also gave a TGI in the assay on NCI-H226 lung of 23 µM.
As to `N#C/C(=C/C=C/c1ccccc1)S(=O)c1ccccc1` (configuration not stated), the GI50 in the assay on SK-OV-3 ovarian is 2.5 µM; in the assay on RXF 393 renal it was 0.385 µM; in the assay with RPMI-8226 leukemia it was 0.351 µM; in the assay with K-562 leukemia, 0.32 µM; with OVCAR-5 ovarian, 0.3 µM; in the assay on HT29 colon, 0.366 µM. In addition, the GI50 with NCI-H226 lung is 1.92 µM. The TGI was 10.9 µM in the assay on SK-OV-3 ovarian; 1.47 µM in the assay with RXF 393 renal; 1.32 µM with RPMI-8226 leukemia; 90.8 µM with K-562 leukemia; 1.07 µM in the assay with OVCAR-5 ovarian; 2.17 µM in the assay on HT29 colon. In the assay on NCI-H226 lung, this compound returned a TGI of 5.88 µM.
For the compound `O=C1C(Cl)=C(Nc2cccc(O)c2)C(=O)N1c1cccc(Cl)c1`, the GI50 was 56.5 µM in the assay on SK-OV-3 ovarian; 25.5 µM with RXF 393 renal; 12.8 µM with RPMI-8226 leukemia; 29.8 µM in the assay on K-562 leukemia; 62.5 µM with OVCAR-5 ovarian; 37.3 µM in the assay on HT29 colon. In the assay with NCI-H226 lung, the GI50 is 26 µM. The TGI with SK-OV-3 ovarian was over 100 µM; in the assay on RXF 393 renal, over 100 µM; in the assay on RPMI-8226 leukemia, 34.3 µM; in the assay on K-562 leukemia, 79 µM; with OVCAR-5 ovarian, over 100 µM; in the assay on HT29 colon it was over 100 µM. In the assay with NCI-H226 lung, the TGI amounted to 76.9 µM.
As to `O=C(COc1ccc(Cl)cc1)N1N=C(c2ccc([N+](=O)[O-])o2)CC1(O)c1ccccc1` (configuration not stated), the TGI in the assay with SK-OV-3 ovarian turned out to be 47.3 µM; with RPMI-8226 leukemia, 18.3 µM; in the assay on KM20L2 colon, 30.4 µM; in the assay with SNB-78 CNS, 37.6 µM; in the assay on K-562 leukemia, 29.7 µM; in the assay with OVCAR-5 ovarian, 29.7 µM. Also, the TGI was 16.3 µM with HT29 colon; 10.1 µM in the assay on M19-MEL melanoma; 55.6 µM with NCI-H226 lung; 18.6 µM in the assay on DMS 273 small cell lung; over 100 µM with DLD-1 colon.
In the case of `COc1ccccc1N1CCN(C(=O)c2ccc(NS(=O)(=O)c3cccc4cccnc34)cc2)CC1`, the GI50 was over 45.5 µM in the assay with SK-OV-3 ovarian; 5.02 µM in the assay on RXF 393 renal; over 100 µM with RPMI-8226 leukemia; over 100 µM with K-562 leukemia; over 100 µM in the assay on OVCAR-5 ovarian; over 100 µM in the assay on HT29 colon. Besides, the GI50 in the assay with NCI-H226 lung is over 33.2 µM. Further, the TGI was over 83.3 µM in the assay on SK-OV-3 ovarian; 59.4 µM in the assay on RXF 393 renal; over 100 µM in the assay on RPMI-8226 leukemia; over 100 µM in the assay on K-562 leukemia; over 100 µM with OVCAR-5 ovarian; over 100 µM in the assay with HT29 colon. The same compound came in with a TGI in the assay with NCI-H226 lung of over 100 µM.
Consider `O=C(NC1CCN(Cc2ccccc2)CC1)c1cc(C(=O)NC2CCN(Cc3ccccc3)CC2)cc(C(=O)NC2CCN(Cc3ccccc3)CC2)c1`, for which the GI50 in the assay on SK-OV-3 ovarian is 8.27 µM; in the assay on RXF 393 renal it was 2.16 µM; in the assay with RPMI-8226 leukemia, 5.52 µM; with K-562 leukemia, 2 µM; in the assay on OVCAR-5 ovarian, 6.83 µM; with HT29 colon, 1.3 µM. Further, in the assay with NCI-H226 lung, the GI50 was 14.7 µM. The TGI in the assay with SK-OV-3 ovarian is 16.1 µM; in the assay with RXF 393 renal it was 10.2 µM; in the assay with RPMI-8226 leukemia, 20.8 µM; with K-562 leukemia, over 50 µM; with OVCAR-5 ovarian it was 13.7 µM; in the assay with HT29 colon, 4.17 µM. In the assay on NCI-H226 lung, this compound returned a TGI of over 50 µM.
With `CC(C)(C)N1CC(OC(N)=O)C1`, the GI50 in the assay with SK-OV-3 ovarian, in the assay with RXF 393 renal, in the assay with RPMI-8226 leukemia, with K-562 leukemia, with OVCAR-5 ovarian and with HT29 colon was over 100 µM in each case. Besides, the GI50 with NCI-H226 lung is over 100 µM. The TGI in the assay with SK-OV-3 ovarian, in the assay on RXF 393 renal, in the assay with RPMI-8226 leukemia, in the assay with K-562 leukemia, in the assay on OVCAR-5 ovarian and with HT29 colon was over 100 µM in each case. In addition, the TGI in the assay on NCI-H226 lung is over 100 µM.
In the case of `O=C1c2cccc3cc([N+](=O)[O-])cc(c23)C(=O)N1CCN1CCCC1`, the GI50 was 0.252 µM in the assay with SK-OV-3 ovarian; 0.839 µM with RXF 393 renal; 0.203 µM with RPMI-8226 leukemia; 0.534 µM with K-562 leukemia; 1.78 µM in the assay with OVCAR-5 ovarian; 0.593 µM in the assay with HT29 colon. Moreover, the GI50 in the assay with NCI-H226 lung was 0.193 µM. For the same compound, the TGI with SK-OV-3 ovarian is 1.11 µM; in the assay with RXF 393 renal it was 3.01 µM; in the assay with RPMI-8226 leukemia, 1.27 µM; in the assay with OVCAR-5 ovarian it was over 19.7 µM; in the assay on HT29 colon, 7.6 µM; in the assay on NCI-H226 lung, 0.632 µM.
Take `COC1OC(CBr)C(OC(c2ccccc2)(c2ccccc2)c2ccccc2)C(OC(c2ccccc2)(c2ccccc2)c2ccccc2)C1OC(c1ccccc1)(c1ccccc1)c1ccccc1` (configuration not stated): the TGI in the assay on SK-OV-3 ovarian is 60.7 µM; in the assay with RXF 393 renal, over 100 µM; in the assay on RPMI-8226 leukemia it was over 100 µM; in the assay with K-562 leukemia it was over 100 µM; in the assay with OVCAR-5 ovarian, over 100 µM; with HT29 colon it was over 100 µM. The compound also yielded a TGI in the assay with NCI-H226 lung of 96.3 µM.
With `CCn1cc(C(=O)N/N=C/c2cccc(F)c2)c(=O)c2cc(F)c(N3CCNC(C)C3)c(F)c21` (configuration not stated), the GI50 in the assay on SK-OV-3 ovarian was 1.78 µM; with RXF 393 renal, 1.69 µM; with RPMI-8226 leukemia, 1.79 µM; in the assay with K-562 leukemia, 1.04 µM; in the assay with OVCAR-5 ovarian, 1.7 µM; in the assay on HT29 colon, 1.55 µM. In the assay on NCI-H226 lung, the GI50 is 1.97 µM. In addition, the TGI in the assay with SK-OV-3 ovarian was found to be 3.28 µM; with RXF 393 renal it was 3.22 µM; in the assay on RPMI-8226 leukemia, 3.77 µM; in the assay with K-562 leukemia it was 2.4 µM; with OVCAR-5 ovarian, 3.1 µM; with HT29 colon it was 2.98 µM. In addition, the TGI in the assay with NCI-H226 lung was found to be 4.13 µM.
